The experiment deals with T1, small-conductance Ca2+-activated K+ channels (SK channels, subtype 2) (Homo sapiens, UniProt Q9H2S1).
T1 construct: expressed in transfected cells; host or cells: HEK293
As to the kind of experiment: whole-cell patch-clamp of ionic current through SK2 channels in HEK293 cells (SC100). In kind it is cell-based. Conditions: whole-cell patch-clamp, HEK293 cells expressing SK2 channels; concentration that increases the basal current by 100%. A digest of the protocol: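 Whole-cell patch-clamp recording of current in HEK293 cells expressing SK2 channels. SC100 is the compound concentration that increases basal current by 100%.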
As to `Cc1ccn(-c2cc(C(C)OC(=O)N(C)C)cc(NC3CCC(F)(F)CC3)n2)n1` (stereo not drawn) [IN11054-003-P1, 1-(2-((4,4-difluorocyclohexyl)amino)-6-(3-methyl-1H-pyrazol-1-yl)pyridin-4-yl)ethyl dimethylcarbamate], the “SC100 (μM)” value is reported as “++ (++ means 200 nM-1000 nM)”.

As to `COC(=O)NC(C)c1cc(NC2CCC(F)(F)CC2)nc(-n2ccc(C)n2)c1` (stereo not drawn) [IN11054-005-P1, methyl (1-(2-((4,4-difluorocyclohexyl)amino)-6-(3-methyl-1H-pyrazol-1-yl)pyridin-4-yl)ethyl) carbamate], the “SC100 (μM)” value is listed as “+ (+ means >1 uM)”. With `Cc1ccn(-c2nc(NC3CCC(F)(F)CC3)cc(OCC(F)(F)F)n2)n1` [IN11054-011-P1], the “SC100 (μM)” value is given as “+ (+ means >1 uM)”. The result for `Cc1ccn(-c2nc(NC3CCC(F)(F)CC3)cc(OCc3cnco3)n2)n1` [IN11054-012-P1] reads “++ (++ means 200 nM-1000 nM)”. With `Cc1ccn(-c2cc(NC3CCC(F)(F)CC3)nc(-n3ccc(C)n3)c2)n1` [IN11054-030-P1, N-(4,4-difluorocyclohexyl)-4,6-bis(3-methyl-1H-pyrazol-1-yl)pyridin-2-amine], the “SC100 (μM)” value was “+ (+ means >1 uM)”. `COc1cc(NC2CCC(F)(F)CC2)nc(-n2nc(C)cc2C)c1` [IN11054-038-P1]: the “SC100 (μM)” value was “+ (+ means >1 uM)”.

`CSc1cc(NC2CCC(F)(F)CC2)nc(-c2nc(C)cs2)n1` [IN11054-039-P1]: the “SC100 (μM)” value is “++ (++ means 200 nM-1000 nM)”. Turning to `Cc1csc(-c2nc(NC3CCC(F)(F)CC3)cc(S(C)(=O)=O)n2)n1` [IN11054-046-P1], the “SC100 (μM)” value is given as “+ (+ means >1 uM)”. The result for `Cc1csc(-c2nc(NC3CCC(F)(F)CC3)cc([S+](C)[O-])n2)n1` (stereo not drawn) [IN11054-046-P2] reads “++ (++ means 200 nM-1000 nM)”; that for `COc1cc(NC2CCC(F)(F)CC2)nc(-n2ccc(C)n2)c1` [IN11054-054-P1, N-(4,4-difluorocyclohexyl)-4-methoxy-6-(3-methyl-1H-pyrazol-1-yl)pyridin-2-amine], “++ (++ means 200 nM-1000 nM)”; that for `Cc1cc(C)n(-c2cc(C)c(CNC3CCC(F)(F)CC3)nn2)n1` [IN11054-078-P1, N-((6-(3,5-dimethyl-1H-pyrazol-1-yl)-4-methylpyridazin-3-yl)methyl)-4,4-difluorocyclohexan-1-amine], “+ (+ means >1 uM)”. With `Cc1csc(-c2nc(NC3CCC(F)(F)CC3)cc(C3CCC3)n2)n1` [IN11054-081-P1, 6-cyclobutyl-N-(4,4-difluorocyclohexyl)-2-(4-methylthiazol-2-yl)pyrimidin-4-amine], the “SC100 (μM)” value was “++ (++ means 200 nM-1000 nM)”. The result for `CCOc1cc(NC2CCC(F)(F)CC2)nc(-c2nc(C)cs2)n1` [IN11055-015-P1] reads “+ (+ means >1 uM)”; that for `Cc1csc(-c2nc(NC3CCC(F)(F)CC3)cc(OC(C)C)n2)n1` [IN11055-016-P1], “+ (+ means >1 uM)”; that for `COc1cc(NC2CCCCC2)nc(-n2nc(C)cc2C)n1` [IN11055-044-P1], “+ (+ means >1 uM)”. For the compound `Cc1csc(-c2nc(NC3CCC(F)(F)CC3)cc(N(C)C)n2)n1` [IN11055-046-P1], the “SC100 (μM)” value is “++ (++ means 200 nM-1000 nM)”. For the compound `CNc1cc(NC2CCC(F)(F)CC2)nc(-c2nc(C)cs2)n1` [IN11055-049-P1], the “SC100 (μM)” value was “++ (++ means 200 nM-1000 nM)”. Under `COc1cc(NC2CCCC2)nc(-c2nc(C)cs2)n1` [IN11055-066-P1] stands “+ (+ means >1 uM)”; under `Cc1csc(-c2nc(N)cc(NC3CCC(F)(F)CC3)n2)n1` [IN11055-068-P1, N4-(4,4-difluorocyclohexyl)-2-(4-methylthiazol-2-yl)pyrimidine-4,6-diamine], “+ (+ means >1 uM)”.

In the case of `COc1cc(NC2CCC(C)(C)CC2)nc(-c2nc(C)cs2)n1` [IN11055-069-P1, N-(4,4-dimethylcyclohexyl)-6-methoxy-2-(4-methylthiazol-2-yl)pyrimidin-4-amine], the “SC100 (μM)” value is “++ (++ means 200 nM-1000 nM)”.

On to `COc1cc(NC2CCC(C)(C)CC2)nc(-n2ccc(C)n2)n1` [IN11055-078-P1, N-(4,4-dimethylcyclohexyl)-6-methoxy-2-(3-methyl-1H-pyrazol-1-yl)pyrimidin-4-amine], for which the “SC100 (μM)” value was “+ (+ means >1 uM)”. Under `COc1cc(NC2CCC(F)CC2)nc(-n2nc(C)cc2C)n1` (stereo not drawn) [IN11055-079-P1] stands “+ (+ means >1 uM)”. Regarding `COc1cc(NC2CC3CCC2C3)nc(-c2nc(C)cs2)n1` (stereo not drawn) [IN11055-087-P1], the “SC100 (μM)” value is on record as “+ (+ means >1 uM)”. In the case of `Cc1csc(-c2nc(NC3CCC(F)(F)CC3)cc(OCc3cnco3)n2)n1` [IN11059-047-P1], the “SC100 (μM)” value is recorded as “+++ (+++ means <200 nM)”.

In the case of `Cc1csc(-c2nc(NC3CCC(F)(F)CC3)cc(OCCNS(C)(=O)=O)n2)n1` [IN11059-052-P1], the “SC100 (μM)” value is “++ (++ means 200 nM-1000 nM)”. Under `Cc1ccn(-c2nc(NC3CCC(F)(F)CC3)cc([S+](C)[O-])n2)n1` (stereo not drawn) [IN11059-069-P1] stands “++ (++ means 200 nM-1000 nM)”. As for `CSc1cc(NC2CCC(F)(F)CC2)nc(-n2ccc(C)n2)n1` [IN11059-070-P1], the “SC100 (μM)” value is given as “++ (++ means 200 nM-1000 nM)”. For `Cc1ccn(-c2nc(NC3CCC(F)(F)CC3)cc(S(C)(=O)=O)[n+]2[O-])n1` [IN11059-071-P1], the “SC100 (μM)” value was “+ (+ means >1 uM)”.

`CC(=O)N(C)Cc1cc(NC2CCC(F)(F)CC2)nc(-c2nc(C)cs2)n1` [IN11059-090-P1]: the “SC100 (μM)” value was “++ (++ means 200 nM-1000 nM)”. The result for `Cc1csc(-c2nc(CN(C)C=O)cc(NC3CCC(F)(F)CC3)n2)n1` [IN11059-095-P1] reads “++ (++ means 200 nM-1000 nM)”. Under `CNCc1cc(NC2CCC(F)(F)CC2)nc(-c2nc(C)cs2)n1` [IN11059-096-P1, N-(4,4-difluorocyclohexyl)-6-((methylamino)methyl)-2-(4-methylthiazol-2-yl)pyrimidin-4-amine] stands “+ (+ means >1 uM)”; under `CCOc1cc(NC2CCC(F)(F)CC2)nc(-n2ccc(C)n2)n1` [IN11063-005-P1], “+ (+ means >1 uM)”; under `Cc1ccn(-c2cc(CN(C)C)cc(NC3CCC(F)(F)CC3)n2)n1` [IN11063-006-P1, N-(4,4-difluorocyclohexyl)-4-((dimethylamino)methyl)-6-(3-methyl-1H-pyrazol-1-yl)pyridin-2-amine], “++ (++ means 200 nM-1000 nM)”.

`COC(=O)NC(C)(C)c1cc(NC2CCC(F)(F)CC2)nc(-n2ccc(C)n2)c1` [IN11063-030-P1, methyl (2-(2-((4,4-difluorocyclohexyl)amino)-6-(3-methyl-1H-pyrazol-1-yl)pyridin-4-yl)propan-2-yl)carbamate]: the “SC100 (μM)” value is listed as “+ (+ means >1 uM)”.

With `Cc1cc(NC2CCC(F)(F)CC2)cc(-c2nc(C)cs2)c1` [IN11063-086-P2, N-(4,4-difluorocyclohexyl)-3-methyl-5-(4-methylthiazol-2-yl) aniline], the “SC100 (μM)” value is reported as “+ (+ means >1 uM)”. For the compound `Cc1csc(-c2cc(N)cc(NC3CCC(F)(F)CC3)n2)n1` [IN11063-087-P1, N2-(4,4-difluorocyclohexyl)-6-(4-methylthiazol-2-yl)pyridine-2,4-diamine], the “SC100 (μM)” value is on record as “++ (++ means 200 nM-1000 nM)”.

Values taken from US10774064B2 (Cadent Therapeutics, Inc., priority 2016, dated 2020).
